Reference: ChEMBL document CHEMBL5325465, “Identification of small-molecule inhibitors of human MUS81-EME1/2 by FRET-based high-throughput screening” (Bioorg Med Chem, 2023)
The source made the active and inactive calls. No cut-off for these calls is given here.

Legend:
[1] = system: HeLa; assay: Chemosensitivity of cisplatin-treated human HeLa cells assessed as reduction in cell viability at 0.1 to 100 uM incubated for 24 hrs CCK-8 assay; assay type: functional, cell-based; conditions: dose 0.1-100 µM
[2] = system: HeLa; assay: Chemosensitivity of bleomycin-treated human HeLa cells assessed as reduction in cell viability at 0.1 to 100 uM incubated for 24 hrs CCK-8 assay; assay type: functional, cell-based; conditions: dose 0.1-100 µM
[3] = biological target: T1, MUS81-ECE2 (Homo sapiens) (UniProt P0DPD6+Q96NY9); assay: Binding affinity to human GST-tagged MUS81-[…] expressed in Escherichia coli BL21(DE3)Rosetta2 cells assessed as Kon by Surface plasmon resonance analysis
[4] = system: HepG2; assay: Chemosensitivity of cisplatin-treated human HepG2 cells assessed as reduction in cell viability at 0.1 to 100 uM incubated for 24 hrs CCK-8 assay; assay type: functional, cell-based; conditions: dose 0.1-100 µM
[5] = system: HeLa; assay: Inhibition of bleomycin-induced DNA-double stranded breaks in human HeLa cells assessed as reduction in gammaH2AX level by Western blot analysis; assay type: functional, cell-based
[6] = biological target: T2, MUS81-ECE1 (Homo sapiens) (UniProt P42892+Q96NY9); assay: Inhibition of human GST-tagged MUS81-[…] expressed in Escherichia coli BL21(DE3)Rosetta2 cells using nDS as substrate at 40 uM
[7] = biological target: T2, MUS81-ECE1 (Homo sapiens); assay: Binding affinity to human GST-tagged MUS81-[…] expressed in Escherichia coli BL21(DE3)Rosetta2 cells assessed as Koff by Surface plasmon resonance analysis
[8] = system: A549; assay: Chemosensitivity of cisplatin-treated human A549 cells assessed as reduction in cell viability at 0.1 to 100 uM incubated for 24 hrs CCK-8 assay; assay type: functional, cell-based; conditions: dose 0.1-100 µM
[9] = biological target: T3, MUS81-ECE2 (Homo sapiens, UniProt P0DPD6+Q96NY9); assay: Binding affinity to human GST-tagged MUS81-[…] expressed in Escherichia coli BL21(DE3)Rosetta2 cells assessed as dissociation constant by Surface plasmon resonance analysis
T3 sequence (P0DPD6 whole entry): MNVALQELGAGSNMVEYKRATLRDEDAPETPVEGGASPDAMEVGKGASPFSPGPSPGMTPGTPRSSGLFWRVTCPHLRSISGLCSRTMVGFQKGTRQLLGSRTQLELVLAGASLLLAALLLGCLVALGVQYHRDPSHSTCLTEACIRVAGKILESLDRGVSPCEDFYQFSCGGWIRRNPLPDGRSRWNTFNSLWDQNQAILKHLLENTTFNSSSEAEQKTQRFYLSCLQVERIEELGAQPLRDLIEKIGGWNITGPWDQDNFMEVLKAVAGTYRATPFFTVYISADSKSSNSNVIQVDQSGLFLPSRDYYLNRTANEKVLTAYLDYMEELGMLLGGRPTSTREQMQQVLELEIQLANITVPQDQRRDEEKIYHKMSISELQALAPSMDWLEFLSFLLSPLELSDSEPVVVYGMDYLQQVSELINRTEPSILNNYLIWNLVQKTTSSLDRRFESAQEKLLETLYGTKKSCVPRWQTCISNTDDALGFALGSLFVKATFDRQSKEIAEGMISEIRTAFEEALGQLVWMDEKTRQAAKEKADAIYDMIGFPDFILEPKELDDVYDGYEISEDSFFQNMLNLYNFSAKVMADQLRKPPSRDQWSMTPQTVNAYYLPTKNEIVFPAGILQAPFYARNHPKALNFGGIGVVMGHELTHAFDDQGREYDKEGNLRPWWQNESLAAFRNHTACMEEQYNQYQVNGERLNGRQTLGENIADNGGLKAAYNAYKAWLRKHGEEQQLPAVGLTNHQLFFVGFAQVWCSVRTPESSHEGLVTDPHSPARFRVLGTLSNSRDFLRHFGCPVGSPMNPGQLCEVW
T3 sequence (Q96NY9 whole entry): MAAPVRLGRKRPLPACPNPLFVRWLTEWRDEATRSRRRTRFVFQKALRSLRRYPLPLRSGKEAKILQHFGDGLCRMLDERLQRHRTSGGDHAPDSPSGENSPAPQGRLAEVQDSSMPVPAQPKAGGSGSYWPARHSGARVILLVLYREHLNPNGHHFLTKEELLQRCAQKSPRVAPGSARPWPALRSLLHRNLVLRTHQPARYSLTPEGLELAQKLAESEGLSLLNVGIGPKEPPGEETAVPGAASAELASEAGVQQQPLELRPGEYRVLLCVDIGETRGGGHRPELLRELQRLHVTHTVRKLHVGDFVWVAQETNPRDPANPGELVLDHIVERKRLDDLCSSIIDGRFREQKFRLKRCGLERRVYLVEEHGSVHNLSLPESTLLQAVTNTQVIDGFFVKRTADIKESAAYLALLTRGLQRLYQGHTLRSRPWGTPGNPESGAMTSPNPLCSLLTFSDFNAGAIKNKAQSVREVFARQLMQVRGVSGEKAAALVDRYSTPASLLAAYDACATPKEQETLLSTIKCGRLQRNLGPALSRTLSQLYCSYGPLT

[10] = biological target: T1, MUS81-ECE2 (Homo sapiens); assay: Binding affinity to human GST-tagged MUS81-[…] expressed in Escherichia coli BL21(DE3)Rosetta2 cells assessed as Koff by Surface plasmon resonance analysis
[11] = system: HeLa; assay: Inhibition of bleomycin-induced DNA-double stranded breaks in human HeLa cells assessed as reduction in gammaH2AX phosphorylation at serine 139 residue at 20 uM incubated for 1 hr by hoechst 33342 staining based immunofluorescence microscopic analysis; assay type: functional, cell-based
[12] = biological target: T2, MUS81-ECE1 (Homo sapiens); assay: Inhibition of human GST-tagged MUS81-[…] expressed in Escherichia coli BL21(DE3)Rosetta2 cells using 3' FLAP as substrate at 40 uM
[13] = biological target: T2, MUS81-ECE1 (Homo sapiens); assay: Binding affinity to human GST-tagged MUS81-[…] expressed in Escherichia coli BL21(DE3)Rosetta2 cells assessed as Kon by Surface plasmon resonance analysis
[14] = system: HepG2; assay: Chemosensitivity of bleomycin-treated human HepG2 cells assessed as reduction in cell viability at 0.1 to 100 uM incubated for 24 hrs CCK-8 assay; assay type: functional, cell-based; conditions: dose 0.1-100 µM
[15] = system: A549; assay: Chemosensitivity of bleomycin-treated human A549 cells assessed as reduction in cell viability at 0.1 to 100 uM incubated for 24 hrs CCK-8 assay; assay type: functional, cell-based; conditions: dose 0.1-100 µM
[16] = biological target: T2, MUS81-ECE1 (Homo sapiens); assay: Inhibition of human GST-tagged MUS81-[…] expressed in Escherichia coli BL21(DE3)Rosetta2 cells using 3' FLAP as substrate incubated for 15 mins by FRET based assay; conditions: dose 0.2-20 µM
[17] = biological target: T3, MUS81-ECE2; assay: Inhibition of human GST-tagged MUS81-[…] expressed in Escherichia coli BL21(DE3)Rosetta2 cells incubated for 15 mins by FRET based assay
[18] = biological target: T1, MUS81-ECE2 (Homo sapiens); assay: Inhibition of human GST-tagged MUS81-[…] expressed in Escherichia coli BL21(DE3)Rosetta2 cells using nDS as substrate incubated for 15 mins by FRET based assay; conditions: dose 0.2-20 µM
[19] = system: MDA-MB-231; assay: Chemosensitivity of bleomycin-treated human MDA-MB-231 cells assessed as reduction in cell viability at 0.1 to 100 uM incubated for 24 hrs CCK-8 assay; assay type: functional, cell-based; conditions: dose 0.1-100 µM
[20] = biological target: T2, MUS81-ECE1 (Homo sapiens); assay: Binding affinity to human GST-tagged MUS81-[…] expressed in Escherichia coli BL21(DE3)Rosetta2 cells at more than 5 uM using nDS as substrate incubated for 30 mins by electrophoretic mobility shift assay
[21] = biological target: T1, MUS81-ECE2 (Homo sapiens); assay: Inhibition of human GST-tagged MUS81-[…] expressed in Escherichia coli BL21(DE3)Rosetta2 cells using nHJ as substrate incubated for 15 mins by FRET based assay; conditions: dose 0.2-20 µM
[22] = system: MDA-MB-231; assay: Chemosensitivity of cisplatin-treated human MDA-MB-231 cells assessed as reduction in cell viability at 0.1 to 100 uM incubated for 24 hrs CCK-8 assay; assay type: functional, cell-based; conditions: dose 0.1-100 µM
[23] = biological target: T1, MUS81-ECE2 (Homo sapiens); assay: Inhibition of human GST-tagged MUS81-[…] expressed in Escherichia coli BL21(DE3)Rosetta2 cells using 3' FLAP as substrate incubated for 15 mins by FRET based assay; conditions: dose 0.2-20 µM
[24] = biological target: T2, MUS81-ECE1 (Homo sapiens); assay: Inhibition of human GST-tagged MUS81-[…] expressed in Escherichia coli BL21(DE3)Rosetta2 cells using nHJ as substrate incubated for 15 mins by FRET based assay; conditions: dose 0.2-20 µM
[25] = biological target: T2, MUS81-ECE1 (Homo sapiens); assay: Inhibition of human GST-tagged MUS81-[…] expressed in Escherichia coli BL21(DE3)Rosetta2 cells using nDS as substrate incubated for 15 mins by FRET based assay; conditions: dose 0.2-20 µM

| K [3] | K [7] | Kd [9] | K [10] | K [13] | SMILES | Activity [1] | Activity [2] | Activity [4] | inhibition [5] | inhibition [11] | Activity [14] | also measured |
| --- | --- | --- | --- | --- | --- | --- | --- | --- | --- | --- | --- | --- |
| 1390 M⁻¹ s⁻¹ | 0.005 s⁻¹ | 4.18 µM | 0.005 s⁻¹ | 934 M⁻¹ s⁻¹ | O=C(N/N=C/c1ccc(O)c(O)c1)c1cc2ccccc2cc1O [DYNASORE] | inactive | inactive | inactive | inactive | inactive | inactive | inhibition [6]: Active; Activity [8]: Active; inhibition [12]: Active; Activity [15]: Active |
| 6420 M⁻¹ s⁻¹ | 0.004 s⁻¹ | 0.605 µM | 0.003 s⁻¹ | 6980 M⁻¹ s⁻¹ | O=C(N/N=C/c1cc(O)c(O)cc1O)c1cc2ccccc2cc1O | inactive | inactive | inactive | Active | Active | inactive | inhibition [16]: Dose-Dependent Effect; IC50 [17]: 2.9 µM; inhibition [18]: Dose-Dependent Effect; Activity [19]: Active; Activity [20]: Active; inhibition [21]: Dose-Dependent Effect; Activity [22]: Active; inhibition [23]: Dose-Dependent Effect; inhibition [24]: Dose-Dependent Effect; inhibition [25]: Dose-Dependent Effect |
